target: T1, human 5HT1A-serotonergic receptor (Homo sapiens, UniProt P08908); test: Radioligand binding to recombinant 5-HT1A receptors; conditions: [3H]8-OH-DPAT 1 nM, membranes of HeLa cells with human 5-HT1A receptor; Ki from IC50 by Cheng & Prusoff; read-out: Binding affinity for 5HT1A receptors, Ki
T1 construct: expressed in transfected cells; host or cells: HeLa (human cell line), stably transfected; cell membranes used
T1 sequence (P08908 1-422): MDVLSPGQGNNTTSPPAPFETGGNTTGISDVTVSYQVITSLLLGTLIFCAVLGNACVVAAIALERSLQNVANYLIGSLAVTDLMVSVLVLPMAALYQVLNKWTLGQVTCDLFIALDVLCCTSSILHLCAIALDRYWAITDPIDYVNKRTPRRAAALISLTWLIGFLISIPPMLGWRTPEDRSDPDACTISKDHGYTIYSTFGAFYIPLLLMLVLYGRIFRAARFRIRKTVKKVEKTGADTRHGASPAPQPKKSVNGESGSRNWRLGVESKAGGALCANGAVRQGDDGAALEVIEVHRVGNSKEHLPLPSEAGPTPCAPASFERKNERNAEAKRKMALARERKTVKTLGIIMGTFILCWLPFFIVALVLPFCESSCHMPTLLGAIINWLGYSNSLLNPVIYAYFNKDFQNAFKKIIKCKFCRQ
Summary of the method: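 Membranes from HeLa cells stably expressing human 5-HT1A incubated 30 min at 30 °C with 1 nM [3H]8-OH-DPAT and compound in 50 mM Tris-HCl pH 7.4, 2.5 mM MgCl2, […] pargyline. Nonspecific binding defined with 10 μM 5-HT; filtration readout, IC50 converted to Ki via Cheng–Prusoff.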

Row | Molecule | Ki
1 | N#Cc1ccc(Cl)cc1N1CCN(CC2CCc3ccccc3N2C(=O)C2CCCCC2)CC1 (stereo not drawn) [Example 35A23, 1-(5-chloro-2-cyanophenyl)-4-(1-cyclohexanecarbonyl-1,2,3,4-tetrahydroquinoline-2-ylmethyl)piperazine] | 3.1 nM
2 | O=C(C1CCCCC1)N1c2ccccc2CCC1CN1CCC(c2cccc(F)c2)CC1 (stereo not drawn) [Example 72A39, 1-(1-Cyclohexanecarbonyl-1,2,3,4-tetrahydroquinolin-2-ylmethyl)-4-(3-fluorophenyl)piperidine] | 39.1 nM
3 | COc1cc(F)ccc1N1CCN(CC2CCc3ccc(Cl)cc3N2C(=O)C2CCCCC2)CC1 (stereo not drawn) [Example 57, 1-(7-Chloro-1-cyclohexanecarbonyl-1,2,3,4-tetrahydroquinoline-2-ylmethyl)-4-(4-fluoro-2-methoxyphenyl)piperazine] | 2.3 nM
4 | O=C(Cc1ccccc1F)N1c2ccccc2CCC1CN1CCN(c2cccc3[nH]ccc23)CC1 (stereo not drawn) [Example 68A63, 1-(4-Indolyl)-4-[1-[2-(2-fluorophenylacetyl)]-1,2,3,4-tetrahydroquinoline-2-ylmethyl]piperazine] | 8.7 nM
5 | O=C(Cc1ccsc1)N1c2ccccc2CCC1CN1CCN(c2cccc3[nH]ccc23)CC1 (stereo not drawn) [Example 68A40, 1-(4-Indolyl)-4-[1-[2-(3-thienylacetyl)]-1,2,3,4-tetrahydroquinoline-2-ylmethyl]piperazine] | 7.5 nM
6 | CC(=O)n1ccc2c(N3CCN(CC4CCc5ccccc5N4C(=O)C4CCCCC4)CC3)cccc21 (stereo not drawn) [Example 35A25, 1-(1-Acetyl-4-indolyl)-4-(1-cyclohexanecarbonyl-1,2,3,4-tetrahydroquinoline-2-ylmethyl)piperazine] | 10.1 nM
7 | COc1cc(F)ccc1N1CCN(CC2CCc3cc(C)ccc3N2C(=O)CC2CCCCC2)CC1 (stereo not drawn) [Example 73A6, 1-(1-Cyclohexylacetyl-1,2,3,4-tetrahydroquinolin-6-methyl-2-ylmethyl)-4-(4-fluoro-2-methoxyphenyl)piperazine] | 18.1 nM
8 | CCCCCNC(=O)N1c2ccccc2CCC1CN1CCN(c2cccc3[nH]ccc23)CC1 (stereo not drawn) [Example 69A11, 1-(4-Indolyl)-4-(1-pentylaminocarbonyl-1,2,3,4-tetrahydroquinoline-2-ylmethyl]piperazine] | 10.4 nM
9 | O=C(C1CCCCC1)N1c2ccccc2CCC1CN1CCN(c2ccc(Br)c3[nH]ccc23)CC1 (stereo not drawn) [Example 35A32, 1-(7-Bromo-4-indolyl)-4-(1-cyclohexanecarbonyl-1,2,3,4-tetrahydroquinoline-2-ylmethyl)piperazine] | 20 nM
10 | CC(=O)N1CCC(C(=O)N2c3ccccc3CCC2CN2CCN(c3cccc4c3OCCO4)CC2)CC1 (stereo not drawn) [Example 76A15, 1-[1-(1-acetyl-4-piperidinecarbonyl)-1,2,3,4-tetrahydroquinolin-2-ylmethyl]-4-(2,3-dihydrobenzo[1,4]dioxin-5-yl)piperazine] | 8.1 nM
11 | O=C(C1CCCCC1)N1c2ccccc2CCC1CN1CCN(c2ccc(Cl)cc2Cl)CC1 (stereo not drawn) [Example 35A9, 1-(1-Cyclohexanecarbonyl-1,2,3,4-tetrahydroquinoline-2-ylmethyl)-4-(2,4-dichlorophenyl)piperazine] | 39.6 nM
12 | N#Cc1ccc(C(=O)N2c3ccccc3CCC2CN2CCN(c3cccc4c3OCCO4)CC2)cc1 (stereo not drawn) [Example 76A5, 1-[1-(4-Cyanobenzoyl)-1,2,3,4-tetrahydroquinolin-2-ylmethyl]-4-(2,3-dihydrobenzo[1,4]dioxin-5-yl)piperazine] | 12.4 nM
13 | O=C(Cc1cccs1)N1c2ccccc2CCC1CN1CCN(c2nccc3ccccc23)CC1 (stereo not drawn) [Example 75A8, 1-(1-Isoquinolinyl)-4-[1-(2-thienyacetyl)-1,2,3,4-tetrahydroquinolin-2-ylmethyl]piperazine] | 17 nM
14 | COc1ccc(C(=O)N2c3cccc(Cl)c3CCC2CN2CCN(c3ccc(F)cc3OC)CC2)cc1 (stereo not drawn) [Example 56, 1-[5-Chloro-1-(4-methoxybenzoyl)-1,2,3,4-tetrahydroquinoline-2-ylmethyl]-4-(4-fluoro-2-methoxyphenyl)piperazine] | 3.6 nM
15 | COc1cc(F)ccc1N1CCN(CC2CCc3ccccc3N2C(=O)CC(C)(C)C)CC1 (stereo not drawn) [Example 74A1, 1-(3,3-Dimethylbutanoyl-1,2,3,4-tetrahydroquinolin-2-ylmethyl)-4-(4-fluoro-2-methoxyhenyl)piperazine] | 2 nM
16 | O=C(c1ccco1)N1c2ccccc2CCC1CN1CCN(c2cccc3c2OCCO3)CC1 (stereo not drawn) [Example 76A3, 1-(2,3-Dihydrobenzo[1,4]dioxin-5-yl)-4-[1-(2-furanecarbonyl)-1,2,3,4-tetrahydroquinolin-2-ylmethyl]piperazine] | 5 nM
17 | COc1ccc(C#N)cc1N1CCN(CC2CCc3ccccc3N2C(=O)C2CCCCC2)CC1 (stereo not drawn) [Example 35A24, 1-(5-Cyano-2-methoxyphenyl)-4-(1-cyclohexanecarbonyl-1,2,3,4-tetrahydroquinoline-2-ylmethyl)piperazine] | 11.6 nM

Row | Molecule | Ki
18 | O=C(Cc1ccccc1C(F)(F)F)N1c2ccccc2CCC1CN1CCN(c2cccc3[nH]ccc23)CC1 (stereo not drawn) [Example 68A64, 1-(4-Indolyl)-4-[1-[2-(2-trifluoromethylphenylacetyl)]-1,2,3,4-tetrahydroquinoline-2-ylmethyl]piperazine] | 13.4 nM
19 | O=C(C1CCCCC1)N1c2c(F)cccc2CCC1CN1CCN(c2cccc3[nH]ccc23)CC1 (stereo not drawn) [Example 38, 1-(1-Cyclohexanecarbonyl-8-fluoro-1,2,3,4-tetrahydroquinoline-2-ylmethyl)-4-(4-indolyl)piperazine] | 17.3 nM
20 | O=C(CCCOc1ccccc1)N1c2ccccc2CCC1CN1CCN(c2nccc3ccccc23)CC1 (stereo not drawn) [Example 75A11, 1-(1-Isoquinolinyl)-4-[1-(4-phenoxybutanoyl)-1,2,3,4-tetrahydroquinolin-2-ylmethyl]piperazine] | 17.1 nM
21 | O=C(c1ccncc1)N1c2ccccc2CCC1CN1CCN(c2cccc3[nH]ccc23)CC1 (stereo not drawn) [Example 68A34, 1-(4-Indolyl)-4-[1-(4-pyridylcarbonyl)-1,2,3,4-tetrahydroquinoline-2-ylmethyl]piperazine] | 24.9 nM
22 | O=C(C1CCC1)N1c2ccccc2CCC1CN1CCN(c2cccc3c2OCCO3)CC1 (stereo not drawn) [Example 76A8] | 19.2 nM
23 | O=C(Cc1ccccc1Cl)N1c2ccccc2CCC1CN1CCN(c2cccc3[nH]ccc23)CC1 (stereo not drawn) [Example 68A45, 1-[1-[2-(2-Chlorophenylacetyl)]-1,2,3,4-tetrahydroquinoline-2-ylmethyl]-4-(4-indolyl)piperazine] | 8.6 nM
24 | Cc1ccccc1NC(=O)N1c2ccccc2CCC1CN1CCN(c2cccc3[nH]ccc23)CC1 (stereo not drawn) [Example 69A, 1-(4-Indolyl)-4-[1-(2-methylphenylaminocarbonyl)-1,2,3,4-tetrahydroquinoline-2-ylmethyl]piperazine] | 7.3 nM
25 | 1-(2-Cyclopropylacetyl-1,2,3,4-tetrahydroquinoline-2-ylmethyl)-4-(4-indolyl)piperazine [Example 68A11] | 6.8 nM
26 | Cc1oc(S(=O)(=O)N2CCOCC2)cc1C(=O)N1c2ccccc2CCC1CN1CCN(c2cccc3[nH]ccc23)CC1 (stereo not drawn) [Example 68A56, 1-(4-Indolyl)-4-[1-(2-methyl-5-morpholin-4-ylsulfonylfuran-3-carbonyl)-1,2,3,4-tetrahydroquinoline-2-ylmethyl]piperazine] | 26.8 nM
27 | COc1cc(F)ccc1N1CCN(CC2CCc3ccccc3N2C(=O)CC(C)C)CC1 (stereo not drawn) [Example 74A, 1-(4-Fluoro-2-methoxyphenyl)-4-[1-(3-methylbutanoyl)-1,2,3,4-tetrahydroquinolin-2-ylmethyl]piperazine] | 17.6 nM
28 | O=C(C1CCCCC1)N1c2ccccc2CCC1CN1CCN(c2ccccc2OS(=O)(=O)C(F)(F)F)CC1 (stereo not drawn) [Example 79, 1-(1-Cyclohexanecarbonyl-1,2,3,4-tetrahydroquinoline-2-ylmethyl)-4-(2-triluoromethanesulphonyloxyphenyl)piperazine] | 4.5 nM
29 | N#Cc1ccc(S(=O)(=O)N2c3ccccc3CCC2CN2CCN(c3cccc4[nH]ccc34)CC2)cc1 (stereo not drawn) [Example 70A5, 1-[1-(4-Cyanophenylsulphonyl)-1,2,3,4-tetrahydroquinoline-2-ylmethyl]-4-(4-indolyl)piperazine] | 40.3 nM
30 | CN(CCOc1cccc2cccnc12)CC1CCc2ccccc2N1C(=O)C1CCCCC1 (stereo not drawn) [Example 72A87, N-(1-Cyclohexanecarbonyl-1,2,3,4-tetrahydroquinolin-2-ylmethyl)-2-(8-quinolyloxy)ethylmethylamine] | 3.9 nM
31 | Cc1oc(S(=O)(=O)N2CCCC2)cc1C(=O)N1c2ccccc2CCC1CN1CCN(c2cccc3[nH]ccc23)CC1 (stereo not drawn) [Example 68A59, 1-(4-Indolyl)-4-[1-(2-methyl-5-pyrrolidin-1-ylsulfonylfuran-3-carbonyl)-1,2,3,4-tetrahydroquinoline-2-ylmethyl]piperazine] | 46.5 nM
32 | COCCC(=O)N1c2ccccc2CCC1CN1CCN(c2ccccc2OCC(F)(F)F)CC1 (stereo not drawn) [Example 7, 1-[1-(3-Methoxypropionyl)-1,2,3,4-tetrahydroquinoline-2-ylmethyl]-4-[2-(2,2,2-trifluoroethoxy)phenyl]piperazine] | 31.2 nM
33 | COc1ccc(C(=O)N2c3ccccc3CCC2CN(C)CCOc2ccccc2OC)cc1 (stereo not drawn) [Example 77A5, N-[1-(4-Methoxybenzoyl)-1,2,3,4-tetrahydroquinolin-2-ylmethyl]-N-[2-(2-methoxyphenoxy)ethyl]methylamine] | 13.1 nM
